Reference: PMC12817894, “Two solutions for efficient light-harvesting in phototrophic Gemmatimonadota” (mSystems, 2025)

Biological target: T1, RC (reaction center) of the RC-dLH complex, L and M subunits (Gemmatimonas groenlandica, UniProt A0A6M4ILR2+A0A6M4IPC7)
T1 construct: gene HKW67_08800; native reaction center within the RC-dLH complex purified from Gem. groenlandica cells, DDM-solubilized; RC-U not detected; with Photosynthetic reaction center cytochrome c subunit; Photosynthetic reaction center H subunit, transmembrane part; Photosynthetic reaction center H subunit, cytoplasmic part; Reaction center subunit S
Assay: cryo-EM structure ([…] Å)
Assay type: binding
Settings: modeled ligand; placement in RC L/M from known biology

T1 sequence (A0A6M4IPC7 1-274): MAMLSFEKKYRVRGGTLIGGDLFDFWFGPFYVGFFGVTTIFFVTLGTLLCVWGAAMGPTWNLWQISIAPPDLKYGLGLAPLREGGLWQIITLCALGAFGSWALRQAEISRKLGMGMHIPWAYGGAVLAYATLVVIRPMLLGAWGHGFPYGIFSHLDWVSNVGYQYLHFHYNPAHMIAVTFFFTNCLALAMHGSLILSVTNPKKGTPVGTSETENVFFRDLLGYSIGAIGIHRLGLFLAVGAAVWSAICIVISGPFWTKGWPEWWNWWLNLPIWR
T1 sequence (A0A6M4ILR2 1-392): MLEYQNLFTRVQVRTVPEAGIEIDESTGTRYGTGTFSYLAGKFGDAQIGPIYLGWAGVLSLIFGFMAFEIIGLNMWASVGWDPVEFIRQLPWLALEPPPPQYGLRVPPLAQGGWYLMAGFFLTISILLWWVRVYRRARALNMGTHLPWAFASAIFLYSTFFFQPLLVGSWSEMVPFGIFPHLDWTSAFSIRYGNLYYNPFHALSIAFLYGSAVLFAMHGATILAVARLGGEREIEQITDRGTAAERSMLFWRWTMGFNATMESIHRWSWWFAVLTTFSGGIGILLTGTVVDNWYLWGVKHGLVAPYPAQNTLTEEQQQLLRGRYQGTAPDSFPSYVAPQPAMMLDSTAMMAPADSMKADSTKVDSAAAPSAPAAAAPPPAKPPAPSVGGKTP

Structure (SMILES): CC[C@H]1c2cc3[nH]c4c(c3C)C(=O)[C@H](C(=O)OC)c4c3nc(cc4[nH]c(cc(n2)[C@@H]1C)c(C(C)=O)c4C)[C@@H](C)[C@@H]3CCC(=O)OC/C=C(\C)CCC[C@H](C)CCC[C@H](C)CCCC(C)C [bacteriopheophytin]
- cryo-EM structure (2.3 Å): bacteriochlorophyll, bacteriopheophytin, gemmatoxanthin, dodecyl-maltoside, phosphoethanolamine, heme, water, cardiolipin, menaquinone, and spirilloxanthin
